Reference: patent US9844550B2, “Phtalazinone derivatives and manufacturing process thereof” (ILDONG PHARM CO., LTD., priority 2013, dated 2017)

These compounds were tested on MDA-MB-436 breast cancer cell line (assay: Cell viability assay (MDA-MB-436)). Conditions: Homo sapiens, 144 h; MDA-MB-436 cells, treated 6 days.
Format: cell-based
Method: 2. Cell Viability Assay (MDA-MB-436)
Cell viability assay was performed by using MDA-MB-436 cell line to measure cytotoxicity of compounds in the present invention. MDA-MB-436 breast cancer cell line was seeded into 96-well plates at 37° C. under 5% CO2 atmosphere using DMEM/F12 (Gibco) containing 10% FBS (Hyclone). After 24 hr incubation, cells were treated with the invented compounds at various concentrations for 6 days. The medium was changed every 3 day. 6 days later, A fluorescence reagent was used to determine the IC50 values.

Structure (SMILES) | IC50 [nM]
O=C(c1cc(Cc2n[nH]c(=O)c3ccccc23)ccc1F)N1CC[C@@H](Nc2nccs2)C1 [Compound I-124, (R)-4-(4-fluoro-3-(3-(thiazol-2-ylamino)pyrrolidine-1-carbonyl)benzyl)phthalazin-1(2H)-one] | 50 to 300
O=C(c1cc(Cc2n[nH]c(=O)c3ccccc23)ccc1F)N1CC[C@@H](N2CCCC2)C1 [Compound I-136, (R)-4-(3-([1,3′-bipyrrolidine]-1′-carbonyl)-4-fluorobenzyl)phthalazin-1(2H)-one] | 5 to 50
C#CCNC1CN(C(=O)c2cc(Cc3n[nH]c(=O)c4ccccc34)ccc2F)C1 [Compound I-81, 4-(4-fluoro-3-(3-(prop-2-yn-1-ylamino)azetidine-1-carbonyl)benzyl)phthalazin-1(2H)-one] | 50 to 300
CCCC(C)NC1CN(C(=O)c2cc(Cc3n[nH]c(=O)c4ccccc34)ccc2F)C1 (centres unmarked) [Compound I-48, 4-(4-fluoro-3-(3-(pentan-2-ylamino)azetidine-1-carbonyl)benzyl)phthalazin-1(2H)-one] | ≤ 5
CC1(C)NC(=O)N(C2CN(C(=O)c3cc(Cc4n[nH]c(=O)c5ccccc45)ccc3F)C2)C1=O [Compound I-14, 3-(1-(2-fluoro-5-((4-oxo-3,4-dihydrophthalazin-1-yl)methyl)benzoyl)azetidin-3-yl)-5,5-dimethylimidazolidine-2,4-dione] | 50 to 300
CC(C)=CCNC1CN(C(=O)c2cc(Cc3n[nH]c(=O)c4ccccc34)ccc2F)C1 [Compound I-54, 4-(4-fluoro-3-(3-((3-methylbut-2-en-1-yl)amino)azetidine-1-carbonyl)benzyl)phthalazin-1(2H)-one] | 5 to 50
CC(C)(CO)CNC1CN(C(=O)c2cc(Cc3n[nH]c(=O)c4ccccc34)ccc2F)C1 [Compound I-93, 4-(4-fluoro-3-(3-((3-hydroxy-2,2-dimethylpropyl)amino)azetidine-1-carbonyl)benzyl)phthalazin-1(2H)-one] | 50 to 300
C=C(C)CNC1CN(C(=O)c2cc(Cc3n[nH]c(=O)c4ccccc34)ccc2F)C1 [Compound I-92, 4-(4-fluoro-3-(3-((2-methylallyl)amino)azetidine-1-carbonyl)benzyl)phthalazin-1(2H)-one] | 5 to 50
CN(c1cccnn1)[C@H]1CCN(C(=O)c2cc(Cc3n[nH]c(=O)c4ccccc34)ccc2F)C1 [Compound I-113, (S)-4-(4-fluoro-3-(3-(methyl(pyridazin-3-yl)amino)pyrrolidine-1-carbonyl)benzyl)phthalazin-1(2H)-one] | 300 to 1000
O=C(c1cc(Cc2n[nH]c(=O)c3ccccc23)ccc1F)N1CC[C@@H](N2CCCCC2)C1 [Compound I-137, (R)-4-(4-fluoro-3-(3-(piperidin-1-yl)pyrrolidine-1-carbonyl)benzyl)phthalazin-1(2H)-one] | 50 to 300
CCN(c1ncccn1)[C@@H]1CCN(C(=O)c2cc(Cc3n[nH]c(=O)c4ccccc34)ccc2F)C1 [Compound I-121, (R)-4-(3-(3-(ethyl(pyrimidin-2-yl)amino)pyrrolidine-1-carbonyl)-4-fluorobenzyl)phthalazin-1(2H)-one] | 300 to 1000
O=C(c1cc(Cc2n[nH]c(=O)c3ccccc23)ccc1F)N1CC[C@@H](Nc2ccc(Cl)nn2)C1 [Compound I-118, (R)-4-(3-(3-((6-chloropyridazin-3-yl)amino)pyrrolidine-1-carbonyl)-4-fluorobenzyl)phthalazin-1(2H)-one] | 300 to 1000
CN(C1CC1)C1CN(C(=O)c2cc(Cc3n[nH]c(=O)c4ccccc34)ccc2F)C1 [Compound I-69, 4-(3-(3-(cyclopropyl(methyl)amino)azetidine-1-carbonyl)-4-fluorobenzyl)phthalazin-1(2H)-one] | 50 to 300
O=C(c1cc(Cc2n[nH]c(=O)c3ccccc23)ccc1F)N1CC[C@@H](NC2CC2)C1 [Compound I-29, (R)-4-(3-(3-(cyclopropylamino)pyrrolidine-1-carbonyl)-4-fluorobenzyl)phthalazin-1(2H)-one] | 300 to 1000

Next, values leading:

IC50 [nM] | Structure (SMILES)
50 to 300 | CCN(C1CC1)C1CN(C(=O)c2cc(Cc3n[nH]c(=O)c4ccccc34)ccc2F)C1 [Compound I-70, 4-(3-(3-(cyclopropyl(ethyl)amino)azetidine-1-carbonyl)-4-fluorobenzyl)phthalazin-1(2H)-one]
50 to 300 | O=C(c1cc(Cc2n[nH]c(=O)c3ccccc23)ccc1F)N1CC(N2CCCCC2)C1 [Compound I-77, 4-(4-fluoro-3-(3-(piperidin-1-yl)azetidine-1-carbonyl)benzyl)phthalazin-1(2H)-one]
300 to 1000 | C[C@H](NC1CN(C(=O)c2cc(Cc3n[nH]c(=O)c4ccccc34)ccc2F)C1)C(C)(C)C [Compound I-87, (S)-4-(3-(3-((3,3-dimethylbutan-2-yl)amino)azetidine-1-carbonyl)-4-fluorobenzyl)phthalazin-1(2H)-one]
50 to 300 | O=C(c1cc(Cc2n[nH]c(=O)c3ccccc23)ccc1F)N1CC(N2CCC(F)(F)C2)C1 [Compound I-73, 4-(3-(3-(3,3-difluoropyrrolidin-1-yl)azetidine-1-carbonyl)-4-fluorobenzyl)phthalazin-1(2H)-one]
5 to 50 | CC(C)CC(C)NC1CN(C(=O)c2cc(Cc3n[nH]c(=O)c4ccccc34)ccc2F)C1 (centres unmarked) [Compound I-46, 4-(4-fluoro-3-(3-((4-methylpentan-2-yl)amino)azetidine-1-carbonyl)benzyl)phthalazin-1(2H)-one]
≤ 5 | C#Cc1cnc(N[C@@H]2CCN(C(=O)c3cc(Cc4n[nH]c(=O)c5ccccc45)ccc3F)C2)nc1 [Compound I-125, (R)-4-(3-(3-((5-ethynylpyrimidin-2-yl)amino)pyrrolidine-1-carbonyl)-4-fluorobenzyl)phthalazin-1(2H)-one]
5 to 50 | CCCCCNC1CN(C(=O)c2cc(Cc3n[nH]c(=O)c4ccccc34)ccc2F)C1 [Compound I-57, 4-(4-fluoro-3-(3-(pentylamino)azetidine-1-carbonyl)benzyl)phthalazin-1(2H)-one]
300 to 1000 | Cc1ccc(N[C@@H]2CCN(C(=O)c3cc(Cc4n[nH]c(=O)c5ccccc45)ccc3F)C2)cc1 [Compound I-138, (R)-4-(4-fluoro-3-(3-(p-tolylamino)pyrrolidine-1-carbonyl)benzyl)phthalazin-1(2H)-one]
5 to 50 | O=C(c1cc(Cc2n[nH]c(=O)c3ccccc23)ccc1F)N1CC(CNCC2CC2)C1 [Compound I-145, 4-(3-(3-(((cyclopropylmethyl)amino)methyl)azetidine-1-carbonyl)-4-fluorobenzyl)phthalazin-1(2H)-one]
5 to 50 | O=C(c1cc(Cc2n[nH]c(=O)c3ccccc23)ccc1F)N1CC(NCCC2CC2)C1 [Compound I-58, 4-(3-(3-((2-cyclopropylethyl)amino)azetidine-1-carbonyl)-4-fluorobenzyl)phthalazin-1(2H)-one]
5 to 50 | O=C(c1cc(Cc2n[nH]c(=O)c3ccccc23)ccc1F)N1CC(NCC2CCCC2)C1 [Compound I-55, 4-(3-(3-((cyclopentylmethyl)amino)azetidine-1-carbonyl)-4-fluorobenzyl)phthalazin-1(2H)-one]
300 to 1000 | O=C(c1cc(Cc2n[nH]c(=O)c3ccccc23)ccc1F)N1CC(NCCCC(F)(F)F)C1 [Compound I-56, 4-(4-fluoro-3-(3-((4,4,4-trifluorobutyl)amino)azetidine-1-carbonyl)benzyl)phthalazin-1(2H)-one]
5 to 50 | N#Cc1cnc(N[C@@H]2CCN(C(=O)c3cc(Cc4n[nH]c(=O)c5ccccc45)ccc3F)C2)nc1 [Compound I-126, (R)-2-((1-(2-fluoro-5-((4-oxo-3,4-dihydrophthalazin-1-yl)methyl)benzoyl)pyrrolidin-3-yl)amino)pyrimidine-5-carbonitrile]
50 to 300 | O=C(c1cc(Cc2n[nH]c(=O)c3ccccc23)ccc1F)N1CC(NCc2ccccc2)C1 [Compound I-133, 4-(3-(3-(benzylamino)azetidine-1-carbonyl)-4-fluorobenzyl)phthalazin-1(2H)-one]
300 to 1000 | O=C(c1cc(Cc2n[nH]c(=O)c3ccccc23)ccc1F)N1CC(N[C@@H]2CCNC2)C1 [Compound I-96, (R)-4-(4-fluoro-3-(3-(pyrrolidin-3-ylamino)azetidine-1-carbonyl)benzyl)phthalazin-1(2H)-one]
300 to 1000 | O=C(c1cc(Cc2n[nH]c(=O)c3ccccc23)ccc1F)N1CC(N(c2ncccn2)C2CCC2)C1 [Compound I-116, 4-(3-(3-(cyclobutyl(pyrimidin-2-yl)amino)azetidine-1-carbonyl)-4-fluorobenzyl)phthalazin-1(2H)-one]
≤ 5 | CC(C)[C@@H](C)NC1CN(C(=O)c2cc(Cc3n[nH]c(=O)c4ccccc34)ccc2F)C1 [Compound I-88, (R)-4-(4-fluoro-3-(3-((3-methylbutan-2-yl)amino)azetidine-1-carbonyl)benzyl)phthalazin-1(2H)-one]
50 to 300 | CCN(CC1CN(C(=O)c2cc(Cc3n[nH]c(=O)c4ccccc34)ccc2F)C1)C1CC1 [Compound I-155, 4-(3-(3-((cyclopropyl(ethyl)amino)methyl)azetidine-1-carbonyl)-4-fluorobenzyl)phthalazin-1(2H)-one]
5 to 50 | CC(C)(C)CNC1CN(C(=O)c2cc(Cc3n[nH]c(=O)c4ccccc34)ccc2F)C1 [Compound I-37, 4-(4-fluoro-3-(3-(neopentylamino)azetidine-1-carbonyl)benzyl)phthalazin-1(2H)-one]
≤ 5 | CC(C)NCC1CN(C(=O)c2cc(Cc3n[nH]c(=O)c4ccccc34)ccc2F)C1 [Compound I-144, 4-(4-fluoro-3-(3-((isopropylamino)methyl)azetidine-1-carbonyl)benzyl)phthalazin-1(2H)-one]
50 to 300 | O=C(c1cc(Cc2n[nH]c(=O)c3ccccc23)ccc1F)N1CC(C(=O)N2CCC(F)(F)C2)C1 [Compound I-19, 4-(3-(3-(3,3-difluoropyrrolidine-1-carbonyl)azetidine-1-carbonyl)-4-fluorobenzyl)phthalazin-1(2H)-one]
